pIC50, pKd: −log10 of the molar value.

Experiment [1] concerns the target T1, SOS1 catalytic domain (residues 564-1049) (Homo sapiens, UniProt Q07889).
T1 sequence (Q07889 564-1049): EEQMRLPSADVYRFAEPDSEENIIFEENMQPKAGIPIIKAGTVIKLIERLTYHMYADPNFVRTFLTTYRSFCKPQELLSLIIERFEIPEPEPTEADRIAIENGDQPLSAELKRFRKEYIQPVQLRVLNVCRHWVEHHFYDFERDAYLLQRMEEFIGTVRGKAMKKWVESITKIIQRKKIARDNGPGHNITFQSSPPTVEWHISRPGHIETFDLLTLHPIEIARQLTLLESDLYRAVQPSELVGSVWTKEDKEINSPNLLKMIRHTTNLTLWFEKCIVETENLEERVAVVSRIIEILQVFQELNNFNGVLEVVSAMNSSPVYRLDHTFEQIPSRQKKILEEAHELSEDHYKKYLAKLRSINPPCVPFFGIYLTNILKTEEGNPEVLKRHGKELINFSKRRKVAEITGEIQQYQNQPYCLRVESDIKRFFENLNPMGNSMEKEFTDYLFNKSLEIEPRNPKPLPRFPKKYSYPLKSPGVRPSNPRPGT
Kind of experiment: Potency Assay: binding affinity to SOS1 using Surface Plasmon Resonance (SPR). The arrangement: SOS1 catalytic domain (residues 564-1049) immobilized on a sensor chip. The note with it: immobilized SOS1 catalytic domain (residues 564-1049), read-out: SOS1 SPR Equilibrium Kd. The method, boiled down:
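Kd was obtained by plotting binding response, taken just before association ended, versus compound concentration on a Biacore 8K. Compounds flowed at 50 μL/min over streptavidin-captured avi-SOS1 catalytic domain (~6000 RU), followed by buffer dissociation; HEPES 0.01 M/NaCl 0.15 M/0.05% P20 buffer, double-referenced.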

Experiment [2] concerns the target T1, SOS1 catalytic domain (residues 564-1049). Put plainly: Mode of Action Assay: inhibition of SOS1 nucleotide exchange activity (SOS1 TR-FRET IC50 Assay). In general terms: Time-resolved FRET reads energy transfer from a long-lived donor to a nearby acceptor.
Experiment [3] has as its system PC-9 cells (EGFR Ex19Del). Put plainly: Potency Assay: pERK (SOS1 pERK IC50 Assay, AlphaLISA SureFire Ultra p-ERK1/2). It counts as cell-based. The note with it: Homo sapiens; PC-9 cells (EGFR Ex19Del), 1 hour incubation, AlphaLISA p-ERK1/2; read-out: SOS1 pERK IC50. Summed up:
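Cellular pERK1/2 by AlphaLISA SureFire Ultra after 1 h compound exposure (37° C., highest concentration 10 μM, 3-fold steps, duplicates) of EGFR Ex19Del PC-9 cells seeded the day before. A 4-parameter fit of signal versus log concentration gives IC50.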
Background: In Alpha technology, singlet oxygen from a donor bead excites a nearby acceptor bead.

A word on the pKd: it is the negative decadic logarithm of the Kd, by convention in mol/L. What is called pIC50 is −log10 of the IC50, conventionally taken in molar units. With `Cc1nc2c(c(N[C@H](C)c3cc(N)cc(C(F)(F)F)c3)n1)CN(S(=O)(=O)N1CCOCC1)C2` [Example 37, (R)—N-(1-(3-amino-5-(trifluoromethyl)phenyl)ethyl)-2-methyl-6-(morpholinosulfonyl)-6,7-dihydro-5H-pyrrolo[3,4-d]pyrimidin-4-amine], the negative logarithm of the Kd (pKd) in experiment [1] was above 6.40. The negative-log IC50 (pIC50) in experiment [2] and in experiment [3] was above 6.00 each time.
For `C[C@@H](Nc1nc(Cl)nc2c1CN(C(=O)N1CCOCC1)C2)c1cccc(C(F)(F)C2CCCO2)c1` (stereo partly drawn) [Example 491], the pKd in experiment [1] was above 6.40. Also, the pIC50 in experiment [2] and in experiment [3] was above 6.00 throughout.
As to `C[C@@H](Nc1nc(Cl)nc2c1CN(C(=O)N1CCOCC1)C2)c1cccc(C(F)(F)CO)c1` [Example 168, [2-chloro-4-[[(1R)-1-[3-(1,1-difluoro-2-hydroxy-ethyl)phenyl]ethyl]amino]-5,7-dihydropyrrolo[3,4-d]pyrimidin-6-yl]-morpholino-methanone], the negative logarithm of the Kd (pKd) in experiment [1] was above 6.40. Moreover, the pIC50 in experiment [2] and in experiment [3] was above 6.00 each time.
Consider `C[C@@H](Nc1nc(Cl)nc2c1CN(C(=O)C1(F)CN(C3COC3)C1)C2)c1cccc(C(F)F)c1F` [Example 329], for which the pKd in experiment [1] is above 6.40. Moreover, the negative logarithm of the IC50 (pIC50) in experiment [2] and in experiment [3] was above 6.00 each time.
As to `COC1(C(=O)N2Cc3nc(C)nc(N[C@H](C)c4cccc(C(F)(F)CO)c4)c3C2)CCOCC1` [Example 239], the pKd in experiment [1] was above 6.40. Moreover, the pIC50 in experiment [2] was above 6.00; in experiment [3], below 6.00.
With `COC(=O)N1C[C@@H]2COC[C@]2(C(=O)N2CCc3nc(Cl)nc(N[C@H](C)c4cc(N)cc(C(F)(F)F)c4)c3C2)C1` [Example 221], in experiment [1], the negative-log Kd (pKd) was below 6.40. The negative logarithm of the IC50 (pIC50) is above 6.00 in experiment [2] and below 6.00 in experiment [3].
For the compound `C[C@@H](Nc1nc(Cl)nc2c1C[C@@H](N1CCOCC1)CC2)c1cccc(C(F)F)c1F` [Example 440], the negative-log Kd (pKd) in experiment [1] was above 6.40. Moreover, the pIC50 in experiment [2] and in experiment [3] was above 6.00 each time.
Regarding `COCC1(S(=O)(=O)N2CCc3nc(Cl)nc(N[C@H](C)c4cc(N)cc(C(F)(F)F)c4)c3C2)CCC1` [Example 448, N-[(1R)-1-[3-amino-5-(trifluoromethyl)phenyl]ethyl]-2-chloro-6-{[1-(methoxymethyl)cyclobutyl]sulfonyl}-5H,6H,7H,8H-pyrido[4,3-d]pyrimidin-4-amine], the negative-log Kd (pKd) in experiment [1] is above 6.40. The pIC50 in experiment [2] was above 6.00; in experiment [3], below 6.00.
For `C[C@@H](Nc1nc(Cl)nc2c1CN(C(=O)N1CCN(C)CC1)C2)c1cccc(C(F)(F)CO)c1` [Example 355], in that order: above 6.40, above 6.00 and below 6.00.
For `C[C@@H](Nc1nc(Cl)nc2c1CN(C(=O)N1CCNC(=O)C1)C2)c1cccc(C(F)(F)F)c1` [Example 376], in that order: above 6.40, above 6.00 and above 6.00.
For `C[C@@H](Nc1nc(Cl)nc2c1CN(C(=O)N1CCNCC(F)C1)C2)c1cccc(C(F)F)c1F` (stereo partly drawn) [Example 404], in that order: above 6.40, above 6.00 and above 6.00.
As to `C[C@@H](Nc1nc(Cl)nc2c1CN(C(=O)C1CCN1)C2)c1cccc(C(F)F)c1F` (stereo partly drawn) [Example 286], in experiment [1], the pKd is above 6.40. Besides, the negative-log IC50 (pIC50) in experiment [2] and in experiment [3] was above 6.00 each time.
Take `C[C@@H](Nc1nc(Cl)nc2c1CN(C(=O)C1(C)CN(CCF)C1)C2)c1cccc(C(F)F)c1F` [Example 342]: the pKd in experiment [1] was above 6.40. The pIC50 in experiment [2] and in experiment [3] was above 6.00 each time.
For `C[C@@H](Nc1nc(Cl)nc2c1CN(C(=O)N1CCNc3ncccc31)C2)c1cccc(C(F)(F)F)c1` [Example 370], the pKd in experiment [1] is above 6.40. For the same compound, the pIC50 in experiment [2] and in experiment [3] was above 6.00 throughout.
Turning to `C[C@@H](Nc1nc(Cl)nc2c1CN(C(=O)N1CCN(C)C(c3ccncc3)C1)C2)c1cccc(C(F)F)c1F` (stereo partly drawn) [Example 417], the pKd in experiment [1] was above 6.40. Besides, the negative-log IC50 (pIC50) in experiment [2] and in experiment [3] was above 6.00 each time.

The values above are taken from patent publication US20230096028A1, “BICYCLIC HETEROCYCLYL COMPOUNDS AND USES THEREOF” (Revolution Medicines, Inc., priority 2019, published 2023).
